Results: patent US20250353864A1, “INDAZOLE CONTAINING MACROCYCLES AND THEIR USE” (BLOSSOMHILL THERAPEUTICS, INC., priority 2022, published 2025)

Experiments:
Assay type in all cases: biochemical
EGFR WT = EGFR WT (Homo sapiens (Human), UniProt P00533); test: HotSpot radiometric kinase assay (Reaction Biology), EGFR WT; conditions: 10 μM ATP
Procedure, shortened: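 Radiometric filter-binding read-out: incorporated 33P was retained on P81 ion-exchange paper after washing away unbound phosphate. Reactions ran 120 min at room temperature with 10 μM final ATP, following ~20 min compound preincubation in Hepes pH 7.5 buffer containing 1% DMSO. IC50 from fitted curves.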

EGFR (D770_N771insNPG) = EGFR (D770_N771insNPG) (Homo sapiens (Human), UniProt P00533, INS770NPG); test: HotSpot radiometric kinase assay, EGFR (D770_N771insNPG); conditions: 10 μM ATP, read-out: EGFR (Δ770_N771insNPG) IC50
Procedure, shortened: (§1)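 10 μM ATP (33P-labelled, final); 120 min RT; P81 filter capture, 0.75% phosphoric acid washes. Cpd preincubated ~20 min with enzyme/substrate, 20 mM Hepes pH 7.5, 10 mM MgCl2, 1% DMSO. IC50 by curve fit.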

EGFR Δ746-750 mutant = EGFR Δ746-750 mutant (Homo sapiens (Human), UniProt P00533, DEL746-750); test: HotSpot radiometric kinase assay, EGFR Δ746-750 mutant; conditions: 10 μM ATP
Chain of EGFR Δ746-750 mutant (P00533 other isoform, or with tags, fused parts or gaps del 1-668/del 746-750 limits assumed): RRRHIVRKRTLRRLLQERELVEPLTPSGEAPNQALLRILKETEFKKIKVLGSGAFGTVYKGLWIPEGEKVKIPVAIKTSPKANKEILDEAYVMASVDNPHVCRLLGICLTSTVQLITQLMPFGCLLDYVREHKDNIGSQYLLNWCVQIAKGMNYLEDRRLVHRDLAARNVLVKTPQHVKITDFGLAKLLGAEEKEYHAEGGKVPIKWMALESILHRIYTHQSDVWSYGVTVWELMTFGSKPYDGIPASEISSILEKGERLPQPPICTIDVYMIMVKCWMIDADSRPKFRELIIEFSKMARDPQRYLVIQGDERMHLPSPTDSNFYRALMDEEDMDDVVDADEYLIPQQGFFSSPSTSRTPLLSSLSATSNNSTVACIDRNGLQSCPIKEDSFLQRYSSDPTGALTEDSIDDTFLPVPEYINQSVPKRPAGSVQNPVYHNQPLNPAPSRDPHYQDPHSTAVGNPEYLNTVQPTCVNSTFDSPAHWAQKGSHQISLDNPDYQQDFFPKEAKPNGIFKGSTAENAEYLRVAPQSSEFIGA
Procedure, shortened: as §1

[1] = biological target: EGFR Δ746-750/C797S mutant (Homo sapiens (Human), UniProt P00533, C797S/DEL746-750); test: HotSpot radiometric kinase assay, EGFR Δ746-750/C797S mutant; conditions: 10 μM ATP
Chain of EGFR Δ746-750/C797S mutant (P00533 other isoform, or with tags, fused parts or gaps C797S/del 1-668/del 746-750 limits assumed): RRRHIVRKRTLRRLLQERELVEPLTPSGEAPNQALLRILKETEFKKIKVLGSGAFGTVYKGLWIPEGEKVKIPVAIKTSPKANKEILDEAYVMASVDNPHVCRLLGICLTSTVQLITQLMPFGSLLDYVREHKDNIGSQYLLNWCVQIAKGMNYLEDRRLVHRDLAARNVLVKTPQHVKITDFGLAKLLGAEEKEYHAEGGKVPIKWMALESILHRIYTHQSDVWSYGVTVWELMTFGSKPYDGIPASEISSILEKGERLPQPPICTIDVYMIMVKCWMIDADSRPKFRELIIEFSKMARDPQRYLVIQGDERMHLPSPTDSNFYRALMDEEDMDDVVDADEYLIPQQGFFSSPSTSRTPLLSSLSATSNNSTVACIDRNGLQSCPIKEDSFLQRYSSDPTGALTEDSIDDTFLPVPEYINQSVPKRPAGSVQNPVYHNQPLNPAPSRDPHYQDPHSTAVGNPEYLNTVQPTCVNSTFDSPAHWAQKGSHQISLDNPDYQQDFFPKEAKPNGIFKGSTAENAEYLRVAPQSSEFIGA
Procedure, shortened: as §1

EGFR L858R mutant = EGFR L858R mutant (Homo sapiens (Human), UniProt P00533, L858R); test: HotSpot radiometric kinase assay, EGFR L858R mutant; conditions: 10 μM ATP
Chain of EGFR L858R mutant (P00533 25-1210 L858R): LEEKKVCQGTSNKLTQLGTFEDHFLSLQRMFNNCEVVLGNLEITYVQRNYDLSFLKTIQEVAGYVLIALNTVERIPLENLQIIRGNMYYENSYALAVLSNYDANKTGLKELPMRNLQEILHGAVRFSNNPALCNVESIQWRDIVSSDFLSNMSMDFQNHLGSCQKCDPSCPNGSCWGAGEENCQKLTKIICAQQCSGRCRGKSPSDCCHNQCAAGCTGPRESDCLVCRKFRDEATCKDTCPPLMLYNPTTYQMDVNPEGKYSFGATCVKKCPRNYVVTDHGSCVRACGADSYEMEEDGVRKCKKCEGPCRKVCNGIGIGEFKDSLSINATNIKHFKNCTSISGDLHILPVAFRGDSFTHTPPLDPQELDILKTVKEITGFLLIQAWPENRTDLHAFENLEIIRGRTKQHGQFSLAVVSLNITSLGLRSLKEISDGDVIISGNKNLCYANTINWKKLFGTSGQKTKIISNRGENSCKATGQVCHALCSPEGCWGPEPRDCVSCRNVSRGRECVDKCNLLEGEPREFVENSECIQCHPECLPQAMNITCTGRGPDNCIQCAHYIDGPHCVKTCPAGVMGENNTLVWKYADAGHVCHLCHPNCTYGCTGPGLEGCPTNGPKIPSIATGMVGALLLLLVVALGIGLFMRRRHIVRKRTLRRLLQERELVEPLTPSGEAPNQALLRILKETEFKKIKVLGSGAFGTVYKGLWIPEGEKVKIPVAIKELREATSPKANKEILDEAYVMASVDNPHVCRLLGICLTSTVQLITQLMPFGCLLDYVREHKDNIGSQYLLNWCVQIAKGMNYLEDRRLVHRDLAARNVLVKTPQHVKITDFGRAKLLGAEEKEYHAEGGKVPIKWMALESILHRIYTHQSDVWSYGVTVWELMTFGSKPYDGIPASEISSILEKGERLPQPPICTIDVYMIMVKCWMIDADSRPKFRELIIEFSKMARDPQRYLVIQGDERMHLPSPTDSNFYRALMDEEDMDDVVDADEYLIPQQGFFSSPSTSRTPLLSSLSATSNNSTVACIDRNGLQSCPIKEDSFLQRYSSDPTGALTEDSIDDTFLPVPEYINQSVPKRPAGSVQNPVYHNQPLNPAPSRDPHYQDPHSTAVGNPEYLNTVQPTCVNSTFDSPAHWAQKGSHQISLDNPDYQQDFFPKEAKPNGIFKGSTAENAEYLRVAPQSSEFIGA
Procedure, shortened: as §1

EGFR L858R/T790M mutant = EGFR L858R/T790M mutant (Homo sapiens (Human), UniProt P00533, L858R/T790M); test: HotSpot radiometric kinase assay, EGFR L858R/T790M mutant; conditions: 10 μM ATP
Procedure, shortened: as §1

[2] = biological target: EGFR L858R/T790M/C797S mutant (Homo sapiens (Human), UniProt P00533, C797S/L858R/T790M); test: HotSpot radiometric kinase assay, EGFR L858R/T790M/C797S mutant; conditions: 10 μM ATP
Procedure, shortened: as §1

CLK1 = CLK1 (Homo sapiens (Human), UniProt P49759); test: Inhibition of CLK1 kinase activity evaluated at Nanosyn (ADP-Glo); conditions: ADP-Glo luminescence
Chain of CLK1 (P49759 whole entry): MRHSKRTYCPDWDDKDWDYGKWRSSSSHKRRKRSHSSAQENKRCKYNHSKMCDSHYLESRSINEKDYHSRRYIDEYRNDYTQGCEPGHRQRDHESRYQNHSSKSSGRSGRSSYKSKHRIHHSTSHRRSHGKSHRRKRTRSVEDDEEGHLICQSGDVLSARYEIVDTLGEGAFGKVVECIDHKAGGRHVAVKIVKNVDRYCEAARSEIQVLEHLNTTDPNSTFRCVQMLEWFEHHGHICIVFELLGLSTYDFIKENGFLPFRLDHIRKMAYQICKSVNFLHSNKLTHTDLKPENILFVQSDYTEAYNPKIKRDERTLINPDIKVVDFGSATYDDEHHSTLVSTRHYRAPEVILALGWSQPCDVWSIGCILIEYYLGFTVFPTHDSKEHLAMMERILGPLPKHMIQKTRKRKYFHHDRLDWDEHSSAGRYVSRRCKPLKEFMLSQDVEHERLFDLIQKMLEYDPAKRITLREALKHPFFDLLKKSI
Procedure, shortened: (§2)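 Enzyme + substrate in HEPES pH 7.5/MgCl2/DTT buffer; compound dispensed acoustically, 1% DMSO. ATP start, assay-specific incubation time. ADP-Glo reagent 40 min, detection reagent 10 min, luminescence. %inh vs DMSO (0%) and no-enzyme (100%) controls.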

CLK2 = CLK2 (Homo sapiens (Human), UniProt P49760); test: Inhibition of CLK2 kinase activity evaluated at Nanosyn (ADP-Glo); conditions: ADP-Glo luminescence
Chain of CLK2 (P49760 whole entry): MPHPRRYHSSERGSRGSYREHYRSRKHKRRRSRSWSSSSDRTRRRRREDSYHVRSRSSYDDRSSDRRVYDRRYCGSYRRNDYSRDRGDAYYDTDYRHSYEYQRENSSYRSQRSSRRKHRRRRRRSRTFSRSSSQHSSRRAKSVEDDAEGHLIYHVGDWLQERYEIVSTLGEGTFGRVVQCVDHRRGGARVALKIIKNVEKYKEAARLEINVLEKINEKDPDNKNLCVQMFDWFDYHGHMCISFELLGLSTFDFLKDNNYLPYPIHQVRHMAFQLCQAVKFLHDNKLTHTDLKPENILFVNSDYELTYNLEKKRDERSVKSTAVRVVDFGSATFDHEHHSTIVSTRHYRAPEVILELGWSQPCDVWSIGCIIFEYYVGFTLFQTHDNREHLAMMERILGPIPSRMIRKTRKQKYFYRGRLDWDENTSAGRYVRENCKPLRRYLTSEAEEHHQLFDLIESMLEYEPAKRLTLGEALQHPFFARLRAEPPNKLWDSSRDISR
Procedure, shortened: as §2

CLK3 = CLK3 (Homo sapiens (Human), UniProt P49761); test: Inhibition of CLK3 kinase activity evaluated at Nanosyn (ADP-Glo); conditions: ADP-Glo luminescence
Procedure, shortened: as §2

CLK4 = CLK4 (Homo sapiens (Human), UniProt Q9HAZ1); test: Inhibition of CLK4 kinase activity evaluated at Nanosyn (ADP-Glo); conditions: ADP-Glo luminescence
Chain of CLK4 (Q9HAZ1 whole entry): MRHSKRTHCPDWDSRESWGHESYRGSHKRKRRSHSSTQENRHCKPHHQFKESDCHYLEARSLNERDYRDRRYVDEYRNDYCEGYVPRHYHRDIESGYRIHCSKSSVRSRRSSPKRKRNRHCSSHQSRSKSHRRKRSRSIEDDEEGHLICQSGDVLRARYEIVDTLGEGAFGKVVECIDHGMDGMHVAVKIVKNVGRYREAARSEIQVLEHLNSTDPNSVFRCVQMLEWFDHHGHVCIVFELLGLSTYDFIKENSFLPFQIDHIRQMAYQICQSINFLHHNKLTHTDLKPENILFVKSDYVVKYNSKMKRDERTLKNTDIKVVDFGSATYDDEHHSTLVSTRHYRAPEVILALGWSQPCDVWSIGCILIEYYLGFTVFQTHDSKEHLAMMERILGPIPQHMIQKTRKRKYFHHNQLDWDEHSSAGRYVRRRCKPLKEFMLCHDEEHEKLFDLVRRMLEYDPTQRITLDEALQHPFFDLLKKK
Procedure, shortened: as §2

Chain of EGFR WT (P00533 25-1210): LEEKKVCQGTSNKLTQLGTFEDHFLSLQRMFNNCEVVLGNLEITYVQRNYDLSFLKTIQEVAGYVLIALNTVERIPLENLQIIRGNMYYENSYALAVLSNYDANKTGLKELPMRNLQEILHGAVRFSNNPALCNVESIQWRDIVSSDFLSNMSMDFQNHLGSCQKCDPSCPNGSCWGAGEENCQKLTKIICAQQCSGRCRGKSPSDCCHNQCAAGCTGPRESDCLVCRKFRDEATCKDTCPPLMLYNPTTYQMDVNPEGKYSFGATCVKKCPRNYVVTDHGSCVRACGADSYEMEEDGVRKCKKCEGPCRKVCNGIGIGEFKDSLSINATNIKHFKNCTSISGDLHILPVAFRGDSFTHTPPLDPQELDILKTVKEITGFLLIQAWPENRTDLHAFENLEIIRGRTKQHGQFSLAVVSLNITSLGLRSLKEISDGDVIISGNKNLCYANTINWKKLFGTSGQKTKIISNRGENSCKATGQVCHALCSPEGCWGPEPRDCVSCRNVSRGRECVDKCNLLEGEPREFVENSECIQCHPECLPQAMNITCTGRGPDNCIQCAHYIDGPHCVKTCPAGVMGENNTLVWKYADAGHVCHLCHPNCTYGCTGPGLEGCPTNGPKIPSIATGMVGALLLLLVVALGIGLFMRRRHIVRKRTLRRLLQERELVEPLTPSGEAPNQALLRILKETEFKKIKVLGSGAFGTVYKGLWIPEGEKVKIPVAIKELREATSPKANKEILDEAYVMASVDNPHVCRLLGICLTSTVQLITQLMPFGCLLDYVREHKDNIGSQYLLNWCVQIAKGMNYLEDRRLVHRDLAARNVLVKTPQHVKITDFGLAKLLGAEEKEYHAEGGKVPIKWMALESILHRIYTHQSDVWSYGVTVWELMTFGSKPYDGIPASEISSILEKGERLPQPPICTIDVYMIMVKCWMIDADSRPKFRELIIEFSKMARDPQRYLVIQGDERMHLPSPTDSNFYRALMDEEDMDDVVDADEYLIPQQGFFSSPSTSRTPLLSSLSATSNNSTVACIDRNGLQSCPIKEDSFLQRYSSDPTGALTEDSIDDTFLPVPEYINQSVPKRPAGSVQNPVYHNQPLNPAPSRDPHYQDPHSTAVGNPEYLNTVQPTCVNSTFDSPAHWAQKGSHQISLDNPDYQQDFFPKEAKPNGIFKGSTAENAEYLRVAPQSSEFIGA

IC50 (EGFR WT) [nM]	IC50 (EGFR (D770_N771insNPG)) [nM]	IC50 (EGFR Δ746-750 mutant) [nM]	IC50 [1] [nM]	IC50 (EGFR L858R mutant) [nM]	IC50 (EGFR L858R/T790M mutant) [nM]	IC50 [2] [nM]	IC50 (CLK1) [nM]	IC50 (CLK2) [nM]	IC50 (CLK3) [nM]	IC50 (CLK4) [nM]	SMILES
43.8	59.1	12.9	3.06	14.6	1.48	0.46	0.24	0.18	126	1	C[C@H]1CN(C)Cc2c(c(O)nn2CCO)/C=C/c2n[nH]c3ccc(cc23)-c2cnn(C)c2O1 [Example 186, (10S,17E)-14-(2-hydroxyethyl)-8,10,12-trimethyl-2,10,11,12,13,14-hexahydro-8H-3,5-ethenotripyrazolo[3,4-f:3′,4′-j:4″,3″-n][1,4]oxazacyclopentadecin-16-ol]
25.9	74.7	8.88	7.84	6.88	0.47	0.33	0.48	0.3	311	1.35	C[C@H]1CN(C)Cc2c(c(OC3CC(S(C)(=O)=O)C3)nn2C)/C=C/c2n[nH]c3ccc(cc23)-c2cnn(C)c2O1 (stereo partly drawn) [Example 187, (10S,17E)-16-{I3-(methanesulfonyl)cyclobutyl|oxy}-8,10,12,14-tetramethyl-2,10,11,12,13,14-hexahydro-8H-3,5-ethenotripyrazolo[3,4-f:3′,4′-j:4″,3″-n][1,4]oxazacyclopentadecine]
19.8	102	9.04	4.19	5.61	4.23	2.63	2.42	4.37	43.4	2.41	CCOc1nn(CCO)c2c1/C=C/c1n[nH]c3cc(F)c(cc13)-c1cnn(C)c1O[C@@H]1CCCN(C2)C1 [Example 191, 2-[(10R,19E)-18-ethoxy-22-fluoro-8-methyl-2,10,11,12,13,15-hexahydro-3,5-etheno-10,14-methanotripyrazolo[3,4-h:3′,4′-l:4″,3″-p][1,6]oxazacycloheptadecin-16(8H)-yl]ethan-1-o]
90.1	77.3	10.2	5.92	36.6	2.42	1.05	31.8	45.4	1000	21	CC(C)Oc1nn(CCO)c2c1/C=C/c1n[nH]c3ccc(cc13)-c1cnn(C)c1O[C@H](C)CN(C(C)C)C2 [Example 193, 2-{(10R,17E)-8,10-dimethyl-12-(propan-2-yl)-16-[(propan-2-yl)oxy]-2,8,10,11,12,13-hexahydro-14H-3,5-ethenotripyrazolo[3,4-f:3′,4′-j:4″,3″-n][1,4]oxazacyclopentadecin-14-yl}ethan-1-ol]
99.7	156	18.6	8.68	39.9	6.18	3.67	36.6	53.5	435	22.3	CC(C)Oc1nn(CCO)c2c1/C=C/c1n[nH]c3cc(F)c(cc13)-c1cnn(C)c1O[C@H](C)CN(C(C)C)C2 [Example 195, 2-{(10R,17E)-19-fluoro-8,10-dimethyl-12-(propan-2-yl)-16-[(propan-2-yl)oxy]-2,8,10,11,12,13-hexahydro-14H-3,5-ethenotripyrazolo[3,4-f:3′,4′-j:4″,3″- n][1,4]oxazacyclopentadecin-14-yl}ethan-1-ol]
194	217	62	29.8	95.2	4.58	2.18	1.16	3.06	78.6	1.59	CCOc1nn(CCO)c2c1/C=C/c1n[nH]c3ccc(cc13)-c1cnn(C)c1O[C@H](C)CNC2 [Example 197, 2-[(10R,17E)-16-ethoxy-8,10-dimethyl-2,8,10,11,12,13-hexahydro-14H-3,5-ethenotripyrazolo[3,4-f:3′,4′-j:4″,3″- n][1,4]oxazacyclopentadecin-14-yl]ethan-1-ol]
